Measurements from PubChem BioAssay (NCI).
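Following 48 hours of exposure in 96-well plates, responses at five concentrations were used to interpolate endpoints linearly. The concentration for 50% growth inhibition is given as GI50. At the TGI there is no net growth.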

Legend:
Assay in all cases: inhibition of tumour cell growth, NCI panel, 48 h
786-0 renal = system: 786-0 renal
A498 renal = system: A498 renal
A549 NSCLC = system: A549 NSCLC
ACHN renal = system: ACHN renal
BT-549 breast = system: BT-549 breast
CAKI-1 renal = system: CAKI-1 renal
CCRF-CEM leukemia = system: CCRF-CEM leukemia
COLO 205 colon = system: COLO 205 colon
DU-145 prostate = system: DU-145 prostate
EKVX NSCLC = system: EKVX NSCLC
HCC-2998 colon = system: HCC-2998 colon
HCT-116 colon = system: HCT-116 colon
HCT-15 colon = system: HCT-15 colon
HL-60(TB) leukemia = system: HL-60(TB) leukemia
HOP-62 NSCLC = system: HOP-62 NSCLC
HOP-92 NSCLC = system: HOP-92 NSCLC
HS 578T breast = system: HS 578T breast
HT29 colon = system: HT29 colon
IGROV1 ovarian = system: IGROV1 ovarian
K-562 leukemia = system: K-562 leukemia
KM12 colon = system: KM12 colon
LOX IMVI melanoma = system: LOX IMVI melanoma
M14 melanoma = system: M14 melanoma
MALME-3M melanoma = system: MALME-3M melanoma
MCF7 breast = system: MCF7 breast
MDA-MB-231 breast = system: MDA-MB-231 breast
MDA-MB-468 breast = system: MDA-MB-468 breast
MOLT-4 leukemia = system: MOLT-4 leukemia
NCI-H226 lung = system: NCI-H226 lung
NCI-H23 lung = system: NCI-H23 lung
NCI-H460 lung = system: NCI-H460 lung
NCI-H522 lung = system: NCI-H522 lung
OVCAR-3 ovarian = system: OVCAR-3 ovarian
OVCAR-4 ovarian = system: OVCAR-4 ovarian
OVCAR-5 ovarian = system: OVCAR-5 ovarian
OVCAR-8 ovarian = system: OVCAR-8 ovarian
PC-3 prostate = system: PC-3 prostate
RPMI-8226 leukemia = system: RPMI-8226 leukemia
RXF 393 renal = system: RXF 393 renal
SF-268 CNS = system: SF-268 CNS
SF-295 CNS = system: SF-295 CNS
SF-539 CNS = system: SF-539 CNS
SK-MEL-28 melanoma = system: SK-MEL-28 melanoma
SK-MEL-5 melanoma = system: SK-MEL-5 melanoma
SK-OV-3 ovarian = system: SK-OV-3 ovarian
SN12C renal = system: SN12C renal
SNB-19 CNS = system: SNB-19 CNS
SNB-75 CNS = system: SNB-75 CNS
SR leukemia = system: SR leukemia
SW-620 colon = system: SW-620 colon
T-47D breast = system: T-47D breast
TK-10 renal = system: TK-10 renal
U251 CNS = system: U251 CNS
UACC-257 melanoma = system: UACC-257 melanoma
UACC-62 melanoma = system: UACC-62 melanoma
UO-31 renal = system: UO-31 renal

## CN(C)c1ccnc(CNCCSC2(c3ccc(C(F)(F)F)cc3)c3ccccc3CCc3ccccc32)c1
786-0 renal
  GI50: 1.9 µM
  TGI: 11.2 µM
A498 renal
  GI50: 14 µM
  TGI: 32.1 µM
A549 NSCLC
  GI50: 1.3 µM
  TGI: 15.1 µM
ACHN renal
  GI50: 0.909 µM
  TGI: 15 µM
BT-549 breast
  GI50: 2.76 µM
  TGI: 7.36 µM
CAKI-1 renal
  GI50: 2.11 µM
  TGI: 14.8 µM
CCRF-CEM leukemia
  GI50: 0.37 µM
  TGI: 6.35 µM
COLO 205 colon
  GI50: 1.02 µM
  TGI: 2.42 µM
DU-145 prostate
  GI50: 3.08 µM
  TGI: 11.3 µM
EKVX NSCLC
  GI50: 0.653 µM
  TGI: 12.7 µM
HCC-2998 colon
  GI50: 0.537 µM
  TGI: 1.83 µM
HCT-116 colon
  GI50: 0.365 µM
  TGI: 1.78 µM
HCT-15 colon
  GI50: 0.403 µM
  TGI: 11 µM
HL-60(TB) leukemia
  GI50: 0.394 µM
  TGI: 1.96 µM
HOP-62 NSCLC
  GI50: 2.2 µM
  TGI: 13.6 µM
HOP-92 NSCLC
  GI50: 2.12 µM
  TGI: 11.7 µM
HS 578T breast
  GI50: 1.62 µM
  TGI: 7.58 µM
HT29 colon
  GI50: 1.68 µM
  TGI: 4.11 µM
IGROV1 ovarian
  GI50: 1.4 µM
  TGI: 13.6 µM
K-562 leukemia
  GI50: 0.336 µM
  TGI: 1.86 µM
KM12 colon
  GI50: 1.26 µM
  TGI: 5.16 µM
LOX IMVI melanoma
  GI50: 1.14 µM
  TGI: 2.43 µM
M14 melanoma
  GI50: 0.465 µM
  TGI: 2.97 µM
MALME-3M melanoma
  GI50: 1.44 µM
  TGI: 3.09 µM
MCF7 breast
  GI50: 0.356 µM
  TGI: 4.32 µM
MDA-MB-231 breast
  GI50: 0.479 µM
  TGI: 2.75 µM
MDA-MB-468 breast
  GI50: 0.293 µM
  TGI: 0.906 µM
MOLT-4 leukemia
  GI50: 1.6 µM
  TGI: 4.45 µM
NCI-H226 lung
  GI50: 2.38 µM
  TGI: 13.9 µM
NCI-H23 lung
  GI50: 2.72 µM
  TGI: 11.8 µM
NCI-H460 lung
  GI50: 0.603 µM
  TGI: 2.54 µM
NCI-H522 lung
  GI50: 0.473 µM
  TGI: 4.26 µM
OVCAR-3 ovarian
  GI50: 1.31 µM
  TGI: 10.5 µM
OVCAR-4 ovarian
  GI50: 4.05 µM
  TGI: 17.3 µM
OVCAR-5 ovarian
  GI50: 2.04 µM
  TGI: 9.12 µM
OVCAR-8 ovarian
  GI50: 0.739 µM
  TGI: 10.8 µM
PC-3 prostate
  GI50: 1.05 µM
  TGI: 12 µM
RPMI-8226 leukemia
  GI50: 1.18 µM
  TGI: 6.42 µM
RXF 393 renal
  GI50: 2.17 µM
  TGI: 9.12 µM
SF-268 CNS
  GI50: 3.24 µM
  TGI: 17.7 µM
SF-295 CNS
  GI50: 0.467 µM
  TGI: 2.34 µM
SF-539 CNS
  GI50: 0.675 µM
  TGI: 2.47 µM
SK-MEL-28 melanoma
  GI50: 3.76 µM
  TGI: 15.9 µM
SK-MEL-5 melanoma
  GI50: 1.15 µM
  TGI: 2.46 µM
SK-OV-3 ovarian
  GI50: 3.32 µM
  TGI: 13.4 µM
SN12C renal
  GI50: 0.59 µM
  TGI: 8.25 µM
SNB-19 CNS
  GI50: 1.24 µM
  TGI: 14.3 µM
SNB-75 CNS
  GI50: 1.84 µM
  TGI: 8.92 µM
SR leukemia
  GI50: 0.345 µM
  TGI: 1.62 µM
SW-620 colon
  GI50: 0.446 µM
  TGI: 12.5 µM
T-47D breast
  GI50: 3.42 µM
  TGI: 15.6 µM
TK-10 renal
  GI50: 3.91 µM
  TGI: 16.1 µM
U251 CNS
  GI50: 0.439 µM
  TGI: 3.56 µM
UACC-257 melanoma
  GI50: 3.67 µM
  TGI: 15.9 µM
UACC-62 melanoma
  GI50: 3.24 µM
  TGI: 14.5 µM
UO-31 renal
  GI50: 2.46 µM
  TGI: 16 µM
